This test has as its target MT2A (MT2, Cu10MT, Cu10MT2) (Oryctolagus cuniculus, UniProt P18055). As to the kind of experiment: ESI-MS demetallation of Cu10MT, Hill fit. Format: binding. The settings on record: C50 for Cu(I) extraction from 3 uM Cu10MT, not a protein affinity; 10 mM DTT, 20 mM ammonium acetate, pH 7.3, 25 °C; all CuMT-TTM complexes counted; no ternary complexes stated; read-out: C50 (mM) for Cu1Cox17. From the text: ESI-MS demetallation of Cu10MT, Hill fit on MT2A (MT2, Cu10MT, Cu10MT2)

Data on one compound can be found in article PMC5780470, “Copper(I)-binding properties of de-coppering drugs for the treatment of Wilson disease. α-Lipoic acid as a potential anti-copper agent” (Scientific Reports, 2018).

Chain of MT2A (MT2, Cu10MT, Cu10MT2) (P18055 whole entry): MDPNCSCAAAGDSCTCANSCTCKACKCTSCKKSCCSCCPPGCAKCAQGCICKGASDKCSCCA

On to `CCN(CC)C(=S)S` [DETC, diethyl dithiocarbamate], for which the IC50 was 0.772 ± 0.087 mM.
